Assay results from patent US7495027B2, “3-aryl-4-hydroxyfuranone compounds and the human and animal health use thereof” (Wyeth, priority 2003, dated 2009).

How the values were obtained:
C. elegans = test: Efficacy against nematodes (C. elegans motility rating); design: key: 0: no effect; 7: reduced movement in 24 h; 8: dead in 24 h; 9: dead in 4 h; conditions: observations at 4 h and 24 h postimmersion
Summary of the method: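 Mixed-stage C. elegans (~50 per well, L1 to adult) in M9 buffer exposed to test compound at 100 ppm, 150 ppm or 200 μM final. Motility of larvae and adults scored under dissecting microscope at 4 h and 24 h.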

[1] = test system: Trichostrongylus columbriformis; test: In vivo efficacy against T. colubriformis in infected gerbils; conditions: gerbils infected with T. colubriformis; single oral dose of 50 mg/kg by gavage; worm counts four days post-treatment; % mortality as compared to negative control
Procedure: In Vivo Evaluation of the Efficacy of Test Compounds Against T. colubriformis
In this evaluation, gerbils are infected with Trichostrongylus columbriformis infective larvae at a concentration of approximately 800 L3/mL. Larvae for gerbil infections are cultured from feces from sheep previously infected with T. colubriformis. One week post infection, test compounds are administered by gavage as a single oral dose of 50 mg/kg of body weight. For each group of 3 gerbils, 10 mg of test compound are dissolved in 2 mL of PEG 400:DMSO (1:2 v/v) and each animal is administered the test solution at a rate of 0.1 mL/10 g of body weight. […] All animals are observed daily for morbidity and mortality. Four days post-treatment, all animals are weighed and necropsied. Worm counts are conducted with the use of stereoscopes and counters.

Structure (SMILES)	Rating (C. elegans; dose 100 ppm)	Mortality [1]	Rating (C. elegans; dose 150 ppm)
O=C1OC(=Cc2ccc(C(F)(F)F)cc2)C(O)=C1c1ccc(-c2ccc(Cl)cc2)cc1 (mixture of isomers)	9	21.30%	
CC(=O)c1cccc(C2=C(O)C(=Cc3cccc4ccccc34)OC2=O)c1 [R=H; R1=3-COCH3—C6H4; R2=1-naphthyl]		10.70%	8
N#Cc1ccc(C=C2OC(=O)C(c3cccc(C#N)c3)=C2O)cc1 (mixture of isomers) [R=H; R1=3-CN—C6H4**; R2=4-CN—C6H4]	9	25.50%	
Cc1ccccc1C1=C(O)C(=Cc2ccc(-c3ccccc3C)cc2)OC1=O		21.30%	8
N#Cc1ccc(-c2ccc(C3=C(O)C(=Cc4ccc(Cl)cc4)OC3=O)cc2)cc1 (mixture of isomers)	9	13.10%	
N#Cc1ccc(C=C2OC(=O)C(c3cccc(C(F)(F)F)c3)=C2O)cc1 (mixture of isomers) [R=H; R1=3-CF3—C6H4**; R2=4-CN—C6H4]	9	0.00%	
O=C1OC(=Cc2ccc(C(F)(F)F)cc2)C(O)=C1c1ccc(-c2ccccc2)cc1 [R=H; R1=4-biphenyl; R2=4-CF3—C6H4]		0.00%	9
N#Cc1ccc(C2=C(O)C(=Cc3ccc(OC(F)F)cc3)OC2=O)cc1 (mixture of isomers) [R=H; R1=4-CN—C6H4**; R2=4-OCHF2—C6H4]	9	48.40%	
O=C1OC(=Cc2ccc(Cl)s2)C(O)=C1c1ccc(OC(F)(F)F)cc1 (mixture of isomers)	9	26.10%	
O=C1O/C(=C\c2ccc(-c3ccc(Cl)c(Cl)c3)cc2)C(O)=C1c1ccc(Cl)c(Cl)c1		22.00%	9
O=C1O/C(=C\c2ccc3ccccc3c2)C(O)=C1c1ccc2ccccc2c1 [R=H; R1=2-naphthyl; R2=2-naphthyl]		13.80%	9
O=C1OC(=Cc2ccc(C(F)(F)F)cc2)C(O)=C1c1cccc(C(F)(F)F)c1 (mixture of isomers) [R=H; R1=3-CF3—C6H4**; R2=4-CF3—C6H4]	9	0.00%	
COc1ccc(C=C2OC(=O)C(c3ccc(Cl)cc3)=C2O)cc1 [R=H; R1=4-Cl—C6H4; R2=4-OCH3—C6H4]		7.10%	0
N#Cc1ccc(C=C2OC(=O)C(c3ccc(F)cc3)=C2O)cc1 (mixture of isomers) [R=H; R1=4-F—C6H4**; R2=4-CN—C6H4]	9	14.70%	
O=C1OC(=Cc2ccc(-c3ccc(Cl)cc3)cc2)C(O)=C1c1cccc(C(F)(F)F)c1 (mixture of isomers)	9	31.30%	
N#Cc1ccc(-c2ccc(C=C3OC(=O)C(c4cccc(C(F)(F)F)c4)=C3O)cc2)cc1 (mixture of isomers)	9	47.50%	
Cc1ccccc1-c1ccc(C=C2OC(=O)C(c3cccc(Cl)c3)=C2O)cc1C		10.80%	9
O=C1OC(=Cc2cc(C(F)(F)F)ccc2F)C(O)=C1c1ccc(OC(F)(F)F)cc1 (mixture of isomers) [R=H; R1=4-OCF3—C6H4**; R2=2-F-5-CF3—C6H3]	9	29.50%	
N#Cc1cccc(C2=C(O)C(=Cc3ccc(C(F)(F)F)cc3)OC2=O)c1 (mixture of isomers) [R=H; R1=3-CN—C6H4**; R2=4-CF3—C6H4]	9	0.00%	
O=C1OC(=Cc2ccc(Cl)cc2)C(O)=C1c1ccc(-c2ccc(Cl)cc2)cc1 (mixture of isomers)	9	0.00%	
O=C1OC(=Cc2ccc(OC(F)(F)F)cc2)C(O)=C1c1ccc(F)cc1 (mixture of isomers) [R=H; R1=4-F—C6H4**; R2=4-OCF3—C6H4]	9	51.60%	
O=C1OC(=Cc2ccc(Oc3ccccc3)cc2)C(O)=C1c1ccc(OC(F)(F)F)cc1 (mixture of isomers) [R=H; R1=4-OCF3—C6H4**; R2=4-phenoxy-C6H4]	0	0.00%	
O=C1OC(=Cc2ccc(-c3ccc(C(F)(F)F)cc3)cc2)C(O)=C1c1ccc(Cl)cc1 (mixture of isomers)	9	0.00%	
O=C1O/C(=C\c2ccc(Cl)cc2)C(O)=C1c1cccc(C(F)(F)F)c1 [R=H; R1=3-CF3—C6H4; R2=4-Cl—C6H4]	9	21.60%	
O=C1O/C(=C\c2cccc3ccccc23)C(O)=C1c1ccc(Cl)cc1 [R=H; R1=4-Cl—C6H4; R2=1-naphthyl]		0.00%	9

Structure (SMILES)	Rating (C. elegans; dose 100 ppm)	Mortality [1]	Rating (C. elegans; dose 150 ppm)
O=C1OC(=Cc2ccc3ccccc3c2)C(O)=C1c1ccc(Cl)cc1 [R=H; R1=4-Cl—C6H4; R2=2-naphthyl]		52.80%	9
O=C1OC(=Cc2ccc(F)cc2)C(O)=C1c1cccc(Cl)c1 (mixture of isomers) [R=H; R1=3-Cl—C6H4**; R2=4-F—C6H4]	9	3.00%	
N#Cc1ccc(C=C2OC(=O)C(c3ccc(-c4ccc(Cl)cc4)cc3)=C2O)cc1 (mixture of isomers)	9	0.00%	
O=C1OC(=Cc2cnccc2-c2ccc(F)cc2)C(O)=C1c1ccc(OC(F)(F)F)cc1 (mixture of isomers)	9	12.80%	
N#Cc1ccc(C2=C(O)C(=Cc3ccc4c(c3)OC(F)(F)O4)OC2=O)cc1 (mixture of isomers)	9	88.10%	
O=C1OC(=Cc2ncccc2Br)C(O)=C1c1ccc(OC(F)(F)F)cc1 (mixture of isomers)	0	26.90%	
N#Cc1cccc(C2=C(O)C(=Cc3ccc(Cl)cc3)OC2=O)c1 (mixture of isomers) [R=H; R1=3-CN—C6H4**; R2=4-Cl—C6H4]	9	0.00%	
O=C1OC(=Cc2ccc(-c3ccc(Cl)cc3)cc2)C(O)=C1c1ccc(F)cc1 (mixture of isomers)	9	1.60%	
N#Cc1ccc(C=C2OC(=O)C(c3ccc(-c4ccc(C#N)cc4)cc3)=C2O)cc1 (mixture of isomers)	9	29.80%	
O=C1OC(=Cc2ccc(C(F)(F)F)cc2)C(O)=C1c1ccc(F)cc1 (mixture of isomers) [R=H; R1=4-F—C6H4**; R2=4-CF3—C6H4]	9	25.60%	
N#Cc1ccc(-c2ccc(C=C3OC(=O)C(c4cccc(Cl)c4)=C3O)cc2)cc1 (mixture of isomers)	9	32.00%	
O=C1O/C(=C\c2cccc3ccccc23)C(O)=C1c1ccc2ccccc2c1 [R=H; R1=2-naphthyl; R2=1-naphthyl]		36.10%	9
O=C1O/C(=C\c2ccccc2C(F)(F)F)C(O)=C1c1ccc(-c2ccccc2)cc1 [R=H; R1=4-biphenyl; R2=2-CF3—C6H4]		23.90%	9
O=C1O/C(=C\c2ccc(Cl)cc2)C(O)=C1c1ccc(-c2ccccc2)cc1 [R=H; R1=4-biphenyl; R2=4-Cl—C6H4]		44.70%	9
O=C1OC(=Cc2ccc(Cl)cc2)C(O)=C1c1ccc(F)cc1 (mixture of isomers) [R=H; R1=4-F—C6H4**; R2=4-Cl—C6H4]	9	0.00%	
O=C1O/C(=C\c2ccc(-c3ccccc3)cc2)C(O)=C1c1ccc(Cl)c(Cl)c1 [R=H; R1=3,4-diCl—C6H3; R2=4-biphenyl]		23.00%	9
O=C1OC(=Cc2ccc(C(F)(F)F)c(F)c2)C(O)=C1c1ccc(OC(F)(F)F)cc1 (mixture of isomers) [R=H; R1=4-OCF3—C6H4**; R2=3-F-4-CF3—C6H3]	9	44.20%	
N#Cc1ccc(C2=C(O)C(=Cc3cccc(C(F)(F)F)c3)OC2=O)cc1 (mixture of isomers) [R=H; R1=4-CN—C6H4**; R2=3-CF3—C6H4]	9	50.00%	
O=C1O/C(=C\c2ccc(-c3ccccc3)cc2)C(O)=C1c1cccc2ccccc12 [R=H; R1=1-naphthyl; R2=4-biphenyl]		18.50%	9
COc1ccc(C2=C(O)C(=Cc3ccc(-c4ccccc4)cc3)OC2=O)cc1 [R=H; R1=4-OCH3—C6H4; R2=4-biphenyl]		44.90%	9
O=C1O/C(=C\c2cccc(C(F)(F)F)c2)C(O)=C1c1cccc(C(F)(F)F)c1 [R=H; R1=3-CF3—C6H4; R2=3-CF3—C6H4]		10.10%	9
O=C1OC(=Cc2cnccc2-c2cccs2)C(O)=C1c1ccc(OC(F)(F)F)cc1 (mixture of isomers)	9	12.80%	
O=C1OC(=Cc2ccc(Cl)c(Cl)c2)C(O)=C1c1ccc(Cl)cc1 (mixture of isomers) [R=H; R1=4-Cl—C6H4**; R2=3,4-diCl—C6H4]	9	58.0%	
N#Cc1ccc(C2=C(O)C(=Cc3ccc(Cl)s3)OC2=O)cc1 (mixture of isomers)	9	20.60%	
